The record followed here is patent US6875761B2 (Eisai Co., Ltd., priority 1997, dated 2005).

Structures are written as SMILES. Counter-ions that a name gives are not always drawn.

Turning to `CCN1CCN(c2nc(-c3ccc(C(O)CC(C)(C)O)cc3)cc3ccccc23)CC1` (stereo not shown) (as salt: hydrochloride) [Example 25, 3-[4-(1,3-dihydroxy-3-methylbutyl)phenyl]-1-(4-ethylpiperazin-1-yl)isoquinoline], the melting point – broadly, the temperature, or range, at which the solid turns liquid – fell in the range of 190 to 192 °C.

`CCN1CCN(c2nc(-c3ccc(C(CC(C)O)OC)cc3)cc3ccccc23)CC1` (stereo not shown) (as salt: hydrochloride) [Example 26, 3-[4-(3-hydroxy-1-methoxybutyl)phenyl]-1-(4-ethylpiperazin-1-yl)isoquinoline] came in with a melting point of 171 to 174 °C.

The molecule `CCN1CCN(c2nc(-c3ccc(C(F)CCO)cc3)cc3ccccc23)CC1` (stereo not shown) (as salt: hydrochloride) [Example 27, 1-(1-Ethylpiperazin-4-yl)-3-[4-(3-hydroxy-1-fluoropropyl)phenyl]isoquinoline] displayed a melting point of 141 to 146 °C.

Consider `CCN1CCN(c2nc(-c3ccc(CO)c(F)c3)cc3ccccc23)CC1` (as salt: hydrochloride) [Example 28, 1-(4-ethylpiperazin-1-yl)-3-[4-(4-hydroxymethyl-3-fluoro)phenyl]isoquinoline hydrochloride], for which the melting point was 228 °C (dec.).

As to `CCN1CCN(c2nc(-c3ccc(CCCO)c(F)c3)cc3ccccc23)CC1` (as salt: hydrochloride) [Example 29], the melting point was 126 to 127 °C (dec.).

`CCN1CCN(c2nc(-c3ccc(CCCO)c(Cl)c3)cc3ccccc23)CC1` (as salt: hydrochloride) [Example 30, 3-[3-chloro-4-(3-hydroxypropyl)phenyl]-1-(4-ethylpiperazin-1-yl)isoquinoline hydrochloride] returned a melting point of 123 to 124 °C.

In turn, `CCN1CCN(c2nc(-c3ccc(CCCO)c(OC)c3)cc3ccccc23)CC1` (as salt: hydrochloride) [Example 33, 1-(4-ethylpiperazin-1-yl)-3-[4-(3-hydroxypropyl)-3-methoxyphenyl]isoquinoline hydrochloride] registered a melting point of 123 to 124 °C.

For `CCN1CCN(c2nc(-c3ccc(OC)c(CCCO)c3)cc3ccccc23)CC1` (as salt: hydrochloride) [Example 34, 3-[3-(3-hydroxypropyl)-4-methoxyphenyl]-1-(4-ethylpiperazin-1-yl)isoquinoline hydrochloride], the melting point fell in the range of 157 to 160 °C.

`CCN1CCN(c2nc(-c3ccc(OC)c(CCCCO)c3)cc3ccccc23)CC1` (as salt: hydrochloride) [Example 35, 3-[3-(4-hydroxybutyl)-4-methoxyphenyl]-1-(4-ethylpiperazin-1-yl)isoquinoline hydrochloride] came in with a melting point of 128 to 132 °C.

`CCN1CCN(c2nc(-c3ccc(OCCO)cc3)cc3ccccc23)CC1` (as salt: hydrochloride) [Example 36, 1-(4-ethylpiperazin-1-yl)-3-[4-(2-hydroxyethoxy)phenyl]isoquinoline dihydrochloride]: the melting point lay in the range of 127 to 129 °C.

Molecule `CCN1CCN(c2nc(-c3cc(OCCO)cc(OCCO)c3)cc3ccccc23)CC1` (as salt: hydrochloride) [Example 38, 3-[3,5-di(2-hydroxyethoxy)phenyl]-1-(4-ethylpiperazin-1-yl)isoquinoline hydrochloride] yielded a melting point of 232 to 234 °C.

Turning to `CCN1CCN(c2nc(-c3ccc(OCCO)c(Cl)c3)cc3ccccc23)CC1` (as salt: hydrochloride) [Example 39, 3-[3-chloro-4-(2-hydroxyethoxy)phenyl]-1-(4-ethylpiperazin-1-yl)isoquinoline hydrochloride], the melting point lay in the range of 138 to 140 °C.

`CCN1CCN(c2nc(-c3ccc(OCCO)c(C)c3)cc3ccccc23)CC1` (as salt: hydrochloride) [Example 40, 3-[3-methyl-4-(2-hydroxyethoxy)phenyl]-1-(4-ethylpiperazin-1-yl)isoquinoline hydrochloride] registered a melting point of 133 to 136 °C.

`CCN1CCN(c2nc(-c3ccc(OCCO)c(C(C)C)c3)cc3ccccc23)CC1` (as salt: hydrochloride) [Example 41, 3-[3-isopropyl-4-(2-hydroxyethoxy)phenyl]-1-(4-ethylpiperazin-1-yl)isoquinoline hydrochloride]: the melting point is 248 to 250 °C (dec.).

Turning to `CCN1CCN(c2nc(-c3ccc(OCCOC)cc3)cc3ccccc23)CC1` (as salt: hydrochloride) [Example 42, 1-(4-ethylpiperazin-1-yl)-3-[4-(2-methoxyethoxy)phenyl]isoquinoline dihydrochloride], the melting point is 184.5 to 185 °C (dec.).

Turning to `CCN1CCN(c2nc(-c3ccc(OCCOC)c(OCCOC)c3)cc3ccccc23)CC1` (as salt: hydrochloride) [Example 43, 3-[3,4-Di(2-Methoxyethoxy)Phenyl]-1-(4-Ethylpiperazin-1-Yl)Isoquinoline Hydrochloride], the melting point lay in the range of 143 to 144 °C.

In turn, `CCN1CCN(c2nc(-c3ccc(COCCO)cc3)cc3ccccc23)CC1` (as salt: hydrochloride) [Example 44, 3-[4-(2-Hydroxyethoxylmethylphenyl]-1-(4-ethylpiperazin-1-Yl)Isoquinoline Hydrochloride] had a melting point of 129 to 131 °C.

As to `CCN1CCN(c2nc(-c3ccc(OCCF)cc3)cc3ccccc23)CC1` (as salt: hydrochloride) [Example 45, 1-(4-Ethylpiperazin-1-Yl)-3-[4-(2-Fluoroethoxy)Phenyl]Isoquinoline Dihydrochloride], the melting point is 223 to 224 °C (dec.).

`CCN1CCN(c2nc(-c3ccc4c(c3)OCO4)cc3ccccc23)CC1` (as salt: hydrochloride) [Example 46, 3-(3,4-Methylenedioxyphenyl)-1-(4-Ethylpiperazin-1-Yl)Isoquinoline Hydrochloride]: the melting point was 223 to 227 °C.

Take `CCN1CCN(c2nc(-c3ccc(OCCN(C)C)cc3)cc3ccccc23)CC1` (as salt: hydrochloride) [Example 49, 1-(1-Ethylpiperazin-4-Yl)-3-[4-(2-Dimethylaminoethoxy)Phenyl]Isoquinoline]: the melting point was in the range of 153 to 158 °C.

In turn, `CCN1CCN(c2nc(-c3ccc(OCC#N)cc3)cc3ccccc23)CC1` (as salt: hydrochloride) [Example 51, 3-(4-Cyanomethoxyphenyl)-1-(4-Ethylpiperazin-1-Yl)Isoquinoline Hydrochloride] gave a melting point of 123 to 125 °C.

`CCN1CCN(c2nc(-c3ccc(OCCCC#N)cc3)cc3ccccc23)CC1` (as salt: hydrochloride) [Example 53, 3-[4-(3-Cyanopropoxy)Phenyl]-1-(4-Ethylpiperazin-1-Yl)Isoquinoline Hydrochloride] registered a melting point of 144 to 146 °C.

As to `CCN1CCN(c2nc(-c3ccc(OCCn4ccnc4)cc3)cc3ccccc23)CC1` (as salt: hydrochloride) [Example 56, 3-{4-[2-(1-Imidazonyl)Ethoxy]phenyl}-1-(4-Ethylpiperazin-1-Yl)Isoquinoline Hydrochloride], the melting point is 160 to 162 °C.

`CCN1CCN(c2nc(-c3ccc(OCCCc4ccncc4)cc3)cc3ccccc23)CC1` (as salt: hydrochloride) [Example 57, 3-{4-[3-(4-Pyridyl)Propoxy]Phenyl}-1-(4-Ethylpiperazin-1-Yl)Isoquinoline Hydrochloride] showed a melting point of 129 to 131 °C.

On to `CCNC(=O)Oc1ccc(-c2cc3ccccc3c(N3CCN(CC)CC3)n2)cc1` (as salt: hydrochloride) [Example 59], for which the melting point is 146 to 150 °C.

For the molecule `CCN1CCN(c2nc(-c3ccc(C#N)cc3)cc3ccccc23)CC1` (as salt: hydrochloride) [Example 62, 3-(4-Cyanophenyl)-1-(4-Ethylpiperazin-1-Yl)Isoquinoline Hydrochloride], the melting point was 241 °C (dec.).

For the molecule `CCCNC(=O)c1ccc(-c2cc3ccccc3c(N3CCN(CC)CC3)n2)cc1` (as salt: hydrochloride) [Example 63, 1-(4-Ethylpiperazin-1-Yl)-3-(4-N-Propylaminocarbonylphenyl)Isoquinoline Hydrochloride], the melting point was 149 to 150 °C.

In turn, `CCN1CCN(c2nc(-c3ccc(C4=CCC(O)CC4)cc3)cc3ccccc23)CC1` (stereo not shown) (as salt: hydrochloride) [Example 64, 3-[4-(4-Hydroxy-1-Cyclohexen-1-Yl)Phenyl]-1-(4-Ethylpiperazin-1-Yl)Isoquinoline Hydrochloride] showed a melting point of 164 to 166 °C.

Take `CCN1CCN(c2nc(-c3ccc(N)cc3)cc3ccccc23)CC1` (as salt: hydrochloride) [Example 65, 3-(4-Aminophenyl)-1-(4-Ethylpiperazin-1-Yl)Isoquinoline Hydrochloride]: the melting point lay within 267 to 268 °C.

`CCN1CCN(c2nc(-c3ccc(N(C)C)cc3)cc3ccccc23)CC1` (as salt: hydrochloride) [Example 66, 3-[4-(N,N-Dimethylamino)Phenyl]-1-(4-Ethylpiperazin-1-Yl)Isoquinoline Dihydrochloride]: the melting point was 160 to 162 °C (dec.).

In turn, `CCN1CCN(c2nc(-c3ccc(NC(C)=O)cc3)cc3ccccc23)CC1` (as salt: hydrochloride) [Example 68, 3-(4-Acetamidephenyl)-1-(4-Ethylpiperazin-1-Yl)Isoquinoline Hydrochloride] gave a melting point of 180 to 182 °C.

`CCC(=O)Nc1ccc(-c2cc3ccccc3c(N3CCN(CC)CC3)n2)cc1` (as salt: hydrochloride) [Example 69, 3-(4-Ethylcarbonylaminophenyl)-1-(4-Ethylpiperazin-1-Yl)Isoquinoline Hydrochloride] showed a melting point of 176 to 178 °C.

`CCCC(=O)Nc1ccc(-c2cc3ccccc3c(N3CCN(CC)CC3)n2)cc1` (as salt: hydrochloride) [Example 70, 3-(4-Propylcarbonylaminophenyl]-1-(4-Ethylpiperazin-1-Yl)Isoquinoline Hydrochloride]: the melting point fell in the range of 170 to 172 °C.

`CCN1CCN(c2nc(-c3ccc(NS(=O)(=O)CC)cc3)cc3ccccc23)CC1` (as salt: hydrochloride) [Example 71, 3-(4-Ethylsulfonylaminophenyl)-1-(4-Ethylpiperazin-1-Yl)Isoquinoline Hydrochloride] showed a melting point of 198 to 201 °C.
